Test results from patent publication US20050004177A1, “Combination of an allosteric inhibitor of matrix metalloproteinase-13 and a ligand to an alpha-2-delta receptor” (WARNER-LAMBERT COMPANY LLC, priority 2003, published 2005).

- melting point: 195 to 198 °C
SMILES: O=C(O)c1ccc(Cn2nnc(-c3cccc(C#CCc4ccccc4)c3)n2)cc1 [Preparation 2, 4-{5-[3-(3-Phenyl-prop-1-ynyl)-phenyl]-tetrazol-2-ylmethyl}-benzoic acid]
